In US10752612B2, “PLK4 inhibitors” (LUDWIG INSTITUTE FOR CANCER RESEARCH LTD, priority 2015, dated 2020):

Target: T1, human Plk4 kinase domain (aa 2-275) (Homo sapiens, UniProt O00444)
T1 construct: purified 6×His-tagged human Plk4 kinase domain (aa 2-275); 6xHis; made in house; host or cells: E. coli
T1 sequence (O00444 2-275): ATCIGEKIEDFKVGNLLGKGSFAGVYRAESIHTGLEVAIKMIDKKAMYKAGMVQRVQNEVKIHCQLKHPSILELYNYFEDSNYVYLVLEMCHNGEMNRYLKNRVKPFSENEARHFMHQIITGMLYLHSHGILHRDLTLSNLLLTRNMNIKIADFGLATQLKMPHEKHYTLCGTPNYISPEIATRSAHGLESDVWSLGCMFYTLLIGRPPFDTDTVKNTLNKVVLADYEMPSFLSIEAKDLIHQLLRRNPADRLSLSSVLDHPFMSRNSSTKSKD
Experiment: Plk4 kinase assay (ADP-Glo)
Format: biochemical
Conditions: Table 1
In short: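 Enzyme at 2.5-10 nM final, pH 8.0, reacted 4-16 hours at 25° C; ADP generation read by ADP-Glo luminescence. Ki derived from IC50 by Cheng-Prusoff or, for tight binders, Copeland formalism.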

IC50 [nM]	Compound
< 1000	Cc1cc(Nc2nc(Sc3ccc(NC(=O)C4CC4)cc3)nc(N3CCN(C(C)C)CC3)c2C)n[nH]1
< 1000	CC(=O)N1CCN(c2nc(Sc3ccc(NC(=O)C4CC4)cc3)nc(Nc3cc(C)[nH]n3)c2C)CC1
< 1000	COCCN1CCN(c2nc(Sc3ccc(NC(=O)C4CC4)cc3)nc(Nc3cc(C)[nH]n3)c2C)CC1
< 1000	Cc1cc(Nc2nc(Sc3ccc(NC(=O)C4CC4)cc3)nc(N3CCN(C)C(C)C3)c2C)n[nH]1 (stereo not shown)
100 to 1000	CCOc1c(Nc2cc(C)[nH]n2)nc(Sc2ccc(NC(C)=O)cc2)nc1N1CCN(C)CC1
< 1000	CC(=O)Nc1ccc(Sc2nc(Nc3cc(C)[nH]n3)c(C)c(N3CCN(CCN(C)C)CC3)n2)cc1
< 1000	COCCN1CCN(c2nc(Sc3ccc(NC(C)=O)cc3)nc(Nc3cc(C)[nH]n3)c2C)CC1
< 1000	CC(=O)Nc1ccc(Sc2nc(Nc3cc(C)[nH]n3)c(C)c(N3CCN(C(C)=O)CC3)n2)cc1
< 1000	CC(=O)Nc1ccc(Sc2nc(Nc3cc(C)[nH]n3)c(C)c(N3CCNCC3)n2)cc1
< 1000	CC(=O)Nc1ccc(Sc2nc(Nc3cc(C)[nH]n3)c(C)c(N3CCOCC3)n2)cc1
< 1000	CC(=O)Nc1ccc(Sc2nc(Nc3cc(C)[nH]n3)c(C)c(N3CCN(C4CCN(C)CC4)CC3)n2)cc1
< 1000	CC(=O)N1CCN(c2nc(Sc3ccc(NC(=O)C4CCCC4)cc3)nc(Nc3cc(C)[nH]n3)c2C)CC1
< 1000	Cc1cc(Nc2nc(Sc3ccc(NC(=O)C4CCCC4)cc3)nc(N3CCNCC3)c2C)n[nH]1
< 1000	Cc1cc(Nc2nc(Sc3ccc(NC(=O)C4CCCC4)cc3)nc(N3CCOCC3)c2C)n[nH]1
< 1000	COc1c(Nc2cc(C)[nH]n2)nc(Sc2ccc(NC(C)=O)cc2)nc1N1CCCCC1
< 1000	CC(=O)Nc1ccc(Sc2nc(Nc3cc(C)[nH]n3)c(C)c(N(C)C(C)C)n2)cc1
< 1000	CC(=O)Nc1ccc(Sc2nc(Nc3cc(C)[nH]n3)c(C)c(N3CCN(C(=O)CCN(C)C)CC3)n2)cc1
< 1000	COCC(=O)N1CCN(c2nc(Sc3ccc(NC(C)=O)cc3)nc(Nc3cc(C)[nH]n3)c2C)CC1
< 1000	Cc1cc(Nc2nc(Sc3ccc(NC(=O)C4CCCC4)cc3)nc(N3CCCCC3)c2C)n[nH]1
< 1000	CC(=O)Nc1ccc(Sc2nc(Nc3cc(C)[nH]n3)c(C)c(N3CCC(O)CC3)n2)cc1

IC50 [nM]	Compound
< 1000	CC(=O)Nc1ccc(Sc2nc(Nc3cc(C)[nH]n3)c(C)c(N3CCCC3)n2)cc1
< 1000	CC(=O)Nc1ccc(Sc2nc(Nc3cc(C)[nH]n3)c(C)c(N3CCCCCC3)n2)cc1
< 1000	CC(=O)Nc1ccc(Sc2nc(Nc3cc(C)[nH]n3)c(C)c(N3CC=CCC3)n2)cc1
< 1000	CC(=O)Nc1ccc(Sc2nc(Nc3cc(C)[nH]n3)c(C)c(N3CC=C(F)CC3)n2)cc1
< 1000	CC(=O)Nc1ccc(Sc2nc(Nc3cc(C)[nH]n3)c(C)c(N3CCC(C)CC3)n2)cc1
< 1000	CC(=O)Nc1ccc(Sc2nc(Nc3cc(C)[nH]n3)c(Cl)c(N3CCN(C)CC3)n2)cc1
< 1000	Cc1ccc(Sc2nc(Nc3cc(C)[nH]n3)c(C)c(N3CCCCC3)n2)cc1
< 1000	Cc1cc(Nc2nc(Sc3ccc(N)cc3)nc(N3CCCCC3)c2C)n[nH]1
< 1000	CNC(=O)Nc1ccc(Sc2nc(Nc3cc(C)[nH]n3)c(C)c(N3CCCCC3)n2)cc1
< 1000	COC(=O)Nc1ccc(Sc2nc(Nc3cc(C)[nH]n3)c(C)c(N3CCCCC3)n2)cc1
< 1000	CC(=O)Nc1ccc(Sc2nc(Nc3cc(C)[nH]n3)c(C)c(N3CCC(F)(F)CC3)n2)cc1
< 1000	CC(=O)Nc1ccc(Sc2nc(Nc3cc(C)[nH]n3)c(C)c(N3CCC(F)CC3)n2)cc1
< 1000	COc1c(Nc2cc(C)[nH]n2)nc(Sc2ccc(NC(C)=O)cc2)nc1N1CCN(C)CC1
< 1000	CC(=O)Nc1ccc(Sc2nc(Nc3cc(C)[nH]n3)c(Cl)c(N3CCCCC3)n2)cc1
< 1000	COc1c(Nc2cc(C)[nH]n2)nc(Sc2ccc(NC(C)=O)cc2)nc1N1CCNCC1
< 1000	COc1c(Nc2cc(C)[nH]n2)nc(Sc2ccc(NC(C)=O)cc2)nc1N(C)C
< 1000	COc1c(Nc2cc(C)[nH]n2)nc(Sc2ccc(NC(C)=O)cc2)nc1N1CCOCC1
< 1000	COc1c(Nc2cc(C)[nH]n2)nc(Sc2ccc(NC(C)=O)cc2)nc1N1CCN(C(C)=O)CC1
< 1000	COCCN1CCN(c2nc(Sc3ccc(NC(C)=O)cc3)nc(Nc3cc(C)[nH]n3)c2OC)CC1
< 1000	COc1c(Nc2cc(C)[nH]n2)nc(Sc2ccc(NC(C)=O)cc2)nc1N1CCCC1

The remaining lines, values behind:

Compound	IC50 [nM]
Cc1cc(Nc2nc(Sc3ccc(NC(=O)C4CC4)cc3)nc(N3CCN(C)CC3)c2CO)n[nH]1	100 to 1000
Cc1cc(Nc2nc(Sc3ccc(NC(=O)C4CC4)cc3)nc(N3CCN(CCN(C)C)CC3)c2C)n[nH]1	< 1000
Cc1cc(Nc2nc(Sc3ccc(NC(=O)C4CC4)cc3)nc(N(C)C)c2C)n[nH]1	< 1000
CCN(C)c1nc(Sc2ccc(NC(=O)C3CC3)cc2)nc(Nc2cc(C)[nH]n2)c1C	< 1000
CCOc1c(Nc2cc(C)[nH]n2)nc(Sc2ccc(NC(=O)C3CC3)cc2)nc1N1CCN(C(=O)CCN(C)C)CC1	100 to 1000
CCOc1c(Nc2cc(C)[nH]n2)nc(Sc2ccc(NC(=O)C3CC3)cc2)nc1N1CCN(C(=O)CCOC)CC1	100 to 1000
CCOc1c(Nc2cc(C)[nH]n2)nc(Sc2ccc(NC(=O)C3CC3)cc2)nc1N1CCN(C2CCN(C)CC2)CC1	100 to 1000
CCOc1c(Nc2cc(C)[nH]n2)nc(Sc2ccc(NC(=O)C3CC3)cc2)nc1N1CCN(CC2CC2)CC1	100 to 1000
CCOc1c(Nc2cc(C)[nH]n2)nc(Sc2ccc(NC(=O)C3CCCC3)cc2)nc1N1CCN(C(=O)CN(C)C)CC1	100 to 1000
CCOc1c(Nc2cc(C)[nH]n2)nc(Sc2ccc(NC(=O)C3CCCC3)cc2)nc1N1CCN(C(=O)COC)CC1	100 to 1000
CCOc1c(Nc2cc(C)[nH]n2)nc(Sc2ccc(NC(=O)C3CCCC3)cc2)nc1N1CCN(C(=O)CCOC)CC1	100 to 1000
CCOc1c(Nc2cc(C)[nH]n2)nc(Sc2ccc(NC(=O)C3CCCC3)cc2)nc1N1CCN(C2CCN(C)CC2)CC1	100 to 1000
CCOc1c(Nc2cc(C)[nH]n2)nc(Sc2ccc(NC(=O)C3CCCC3)cc2)nc1N1CCN(CC2CC2)CC1	100 to 1000
COc1c(Nc2cc(C)[nH]n2)nc(Sc2ccc(NC(=O)C3CC3)cc2)nc1NC1CCN(C)CC1	100 to 1000
CCOc1c(Nc2cc(C)[nH]n2)nc(Sc2ccc(NC(=O)C3CC3)cc2)nc1N1CCN(C(=O)CN(C)C)CC1	100 to 1000
CCOc1c(Nc2cc(C)[nH]n2)nc(Sc2ccc(NC(=O)C3CC3)cc2)nc1N1CCN(C2CCNCC2)CC1	100 to 1000
CCOc1c(Nc2cc(C)[nH]n2)nc(Sc2ccc(NC(C)=O)cc2)nc1N(C)C	100 to 1000
CCOc1c(Nc2cc(C)[nH]n2)nc(Sc2ccc(NC(=O)C3CCCC3)cc2)nc1N1CCN(C2CCNCC2)CC1	100 to 1000
CCOc1c(Nc2cc(C)[nH]n2)nc(Sc2ccc(NC(=O)C3CCCC3)cc2)nc1N1CCN(C)CC1	100 to 1000
CCOc1c(Nc2cc(C)[nH]n2)nc(Sc2ccc(NC(=O)C3CCCC3)cc2)nc1N(C)C	100 to 1000
Cc1cc(Cc2nc(Sc3ccc(NC(=O)C4CCCC4)cc3)nc(N3CCN(CCN(C)C)CC3)c2C)n[nH]1	< 1000

Compound	IC50 [nM]
COCCN1CCN(c2nc(Sc3ccc(NC(=O)C4CCCC4)cc3)nc(Cc3cc(C)[nH]n3)c2C)CC1	< 1000
Cc1cc(Nc2nc(Sc3ccc(NC(=O)C4CCCC4)cc3)nc(N3CCN(C4CCN(C)CC4)CC3)c2C)n[nH]1	< 1000
CCOc1c(Nc2cc(C)[nH]n2)nc(Sc2ccc(NC(=O)C3CCCC3)cc2)nc1N1CCN(C(=O)CCN(C)C)CC1	> 1000
CCSc1c(Nc2cc(C)[nH]n2)nc(Sc2ccc(NC(=O)C3CC3)cc2)nc1N1CCN(C)CC1	100 to 1000
Cc1cc(Nc2nc(Sc3ccc(NC(=O)C4CCCC4)cc3)nc(N(C)C(C)C)c2C)n[nH]1	< 1000
COCC(=O)N1CCN(c2nc(Sc3ccc(NC(=O)C4CCCC4)cc3)nc(Nc3cc(C)[nH]n3)c2C)CC1	< 1000
CCN(CC)c1nc(Sc2ccc(NC(=O)C3CCCC3)cc2)nc(Nc2cc(C)[nH]n2)c1C	100 to 1000
CCN(C)c1nc(Sc2ccc(NC(=O)C3CCCC3)cc2)nc(Nc2cc(C)[nH]n2)c1C	< 1000
Cc1cc(Nc2nc(Sc3ccc(NC(=O)C4CCCC4)cc3)nc(N(C)C)c2C)n[nH]1	< 1000
CSc1c(Nc2cc(C)[nH]n2)nc(Sc2ccc(NC(=O)C3CC3)cc2)nc1N1CCN(C)CC1	100 to 1000
Cc1cc(Nc2nc(Sc3ccc(NC(=O)C4CC4)cc3)nc(N3CCN(C)CC3)c2Cl)n[nH]1	100 to 1000
CSc1nc(Nc2cc(C)[nH]n2)c(C)c(N2CCCCC2)n1	< 1000
Cc1cc(Nc2nc(Sc3ccccc3)nc(N3CCCCC3)c2C)n[nH]1	< 1000
COc1c(Nc2cc(C)[nH]n2)nc(Sc2ccc(S(=O)(=O)Cc3ccccc3)cc2)nc1N1CCC(CCN2CCN(C)CC2)CC1	< 1000
COc1c(Nc2cc(C)[nH]n2)nc(Sc2ccc(S(=O)(=O)Cc3ccccc3)cc2)nc1N1CCN(CCN2CCCCCC2)CC1	< 1000
COc1c(Nc2cc(C)[nH]n2)nc(Sc2ccc(NC(C)=O)cc2)nc1N1CCN(C2CCN(C)CC2)CC1	< 1000
CCOc1c(Nc2cc(C)[nH]n2)nc(Sc2ccc(NC(C)=O)cc2)nc1N1CCN(C2CCN(C)CC2)CC1	100 to 1000
Cc1cc(Nc2nc(Sc3ccc(N(C)C)cc3)nc(N3CCCCC3)c2C)n[nH]1	< 1000
CC(=O)Nc1ccc(Sc2nc(Nc3cc(C)[nH]n3)cc(N3CCCCC3)n2)cc1	< 1000
CCN(CC)c1nc(Sc2ccc(NC(C)=O)cc2)nc(Nc2cc(C)[nH]n2)c1OC	< 1000
CCN(C)c1nc(Sc2ccc(NC(C)=O)cc2)nc(Nc2cc(C)[nH]n2)c1OC	< 1000
